Article PMC11396129, “Oxindole–benzothiazole hybrids as CDK2 inhibitors and anticancer agents: design, synthesis and biological evaluation” (BMC Chemistry, 2024)

Experiments:
Assay type in all cases: cell-based, human
[1] = tested on: SNB-19; test: NCI 60 panel growth inhibition (SRB), CNS cancer; settings: for GI%: SNB-19, 10 μM
Summary of the method: (§1)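 SRB absorbance read-out; growth computed as [(Ti−Tz)/(C−Tz)]×100 when Ti≥Tz, else [(Ti−Tz)/Tz]×100. TGI taken where Ti = Tz. Five drug concentrations per line, seeding 5000–40,000 cells/well, time-zero fixation at 24 h.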

[2] = tested on: SF-268; test: NCI 60 panel growth inhibition (SRB), CNS cancer; settings: for GI%: SF-268, 10 μM
Summary of the method: as §1

[3] = tested on: SF-539; test: NCI 60 panel growth inhibition (SRB), CNS cancer; settings: for GI%: SF-539, 10 μM
Summary of the method: as §1

[4] = tested on: SNB-75; test: NCI 60 panel growth inhibition (SRB), CNS cancer; settings: SNB-75, 10 μM
Summary of the method: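 Two-stage NCI process: single-dose screen, then five-concentration testing of selected compounds. Growth relative to time-zero and untreated controls was derived from SRB absorbance, and TGI from the concentration giving Ti = Tz.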

[5] = tested on: SF-295; test: NCI 60 panel growth inhibition (SRB), CNS cancer; settings: for GI%: SF-295, 10 μM
Summary of the method: as §1

[6] = tested on: SK-MEL-28; test: NCI 60 panel growth inhibition (SRB), melanoma; settings: for GI%: SK-MEL-28, 10 μM
Summary of the method: as §1

[7] = tested on: MALME-3M; test: NCI 60 panel growth inhibition (SRB), melanoma; settings: for GI%: 10 μM
Summary of the method: as §1

[8] = tested on: UACC-62; test: NCI 60 panel growth inhibition (SRB), melanoma; settings: for GI%: UACC-62, 10 μM
Summary of the method: as §1

[9] = tested on: SK-MEL-5; test: NCI 60 panel growth inhibition (SRB), melanoma; settings: for GI%: SK-MEL-5, 10 μM
Summary of the method: as §1

[10] = tested on: MDA-MB-435; test: NCI 60 panel growth inhibition (SRB), melanoma; settings: for GI%: MDA-MB-435, 10 μM
Summary of the method: as §1

[11] = tested on: M14; test: NCI 60 panel growth inhibition (SRB), melanoma; settings: for GI%: M14, 10 μM
Summary of the method: as §1

[12] = tested on: LOX IMVI; test: NCI 60 panel growth inhibition (SRB), melanoma; settings: for GI%: 10 μM
Summary of the method: as §1

[13] = tested on: UACC-257; test: NCI 60 panel growth inhibition (SRB), melanoma; settings: for GI%: UACC-257, 10 μM
Summary of the method: as §1

[14] = tested on: UO-31; test: NCI 60 panel growth inhibition (SRB), renal cancer; settings: for GI%: UO-31, 10 μM
Summary of the method: as §1

[15] = tested on: A498; test: NCI 60 panel growth inhibition (SRB), renal cancer; settings: for GI%: A498, 10 μM
Summary of the method: as §1

[16] = tested on: CAKI-1; test: NCI 60 panel growth inhibition (SRB), renal cancer; settings: for GI%: CAKI-1, 10 μM
Summary of the method: as §1

[17] = tested on: TK-10; test: NCI 60 panel growth inhibition (SRB), renal cancer; settings: for GI%: TK-10, 10 μM
Summary of the method: as §1

[18] = tested on: ACHN; test: NCI 60 panel growth inhibition (SRB), renal cancer; settings: for GI%: 10 μM
Summary of the method: as §1

[19] = tested on: SN12C; test: NCI 60 panel growth inhibition (SRB), renal cancer; settings: for GI%: 10 μM
Summary of the method: as §1

[20] = tested on: RXF 393; test: NCI 60 panel growth inhibition (SRB), renal cancer; settings: for GI%: RXF 393, 10 μM
Summary of the method: as §1

[21] = tested on: 786-0; test: NCI 60 panel growth inhibition (SRB), renal cancer; settings: for GI%: 786-0, 10 μM
Summary of the method: as §1

[22] = tested on: HS 578T; test: NCI 60 panel growth inhibition (SRB), breast cancer; settings: for GI%: 10 μM
Summary of the method: as §1

[23] = tested on: MCF7; test: as above; settings: for GI%: MCF7, 10 μM
Summary of the method: as §1

[24] = tested on: MDA-MB-468; test: as above; settings: for GI%: MDA-MB-468, 10 μM
Summary of the method: as §1

[25] = tested on: MDA-MB-231/ATCC; test: as above; settings: for GI%: 10 μM
Summary of the method: as §1

[26] = tested on: T-47D; test: as above; settings: for GI%: 10 μM
Summary of the method: as §1

[27] = tested on: BT-549; test: as above; settings: for GI%: BT-549, 10 μM
Summary of the method: as §1

[28] = tested on: COLO 205; test: NCI 60 panel growth inhibition (SRB), colon cancer; settings: for GI%: COLO 205, 10 μM
Summary of the method: as §1

[29] = tested on: SW-620; test: NCI 60 panel growth inhibition (SRB), colon cancer; settings: for GI%: SW-620, 10 μM
Summary of the method: as §1

[30] = tested on: HCT-116; test: NCI 60 panel growth inhibition (SRB), colon cancer; settings: for GI%: HCT-116, 10 μM
Summary of the method: as §1

[31] = tested on: HCC-2998; test: NCI 60 panel growth inhibition (SRB), colon cancer; settings: for GI%: HCC-2998, 10 μM
Summary of the method: as §1

[32] = tested on: KM12; test: NCI 60 panel growth inhibition (SRB), colon cancer; settings: for GI%: KM12, 10 μM
Summary of the method: as §1

[33] = tested on: HCT-15; test: NCI 60 panel growth inhibition (SRB), colon cancer; settings: for GI%: HCT-15, 10 μM
Summary of the method: as §1

[34] = tested on: NCI 60 cancer cell line panel; test: NCI 60 panel growth inhibition (SRB), whole panel; settings: for Mean GI%: mean over NCI 60 panel, 10 μM
Summary of the method: as §1

COc1ccc2c(c1)C(=NNC(=O)COc1cc(-c3nc4ccccc4s3)ccc1OC)C(=O)N2 [Compound 9o, 2-(5-(Benzo[d]thiazol-2-yl)-2-methoxyphenoxy)-N′-(5-methoxy-2-oxoindolin-3-ylidene)acetohydrazide]
GI50 ([1]; Homo sapiens, SNB-19, five dose): 5.72 µM
GI% [1]: 49.50%
GI50 ([2]; Homo sapiens, SF-268, five dose): > 100 µM
GI% [2]: 51.91%
GI50 ([3]; Homo sapiens, SF-539, five dose): 39.9 µM
GI% [3]: 12.44%
GI% [4]: – (GI% < 5%)
GI50 ([5]; Homo sapiens, SF-295, five dose): 11.8 µM
GI% [5]: 31.59%
GI50 ([6]; Homo sapiens, SK-MEL-28, five dose): > 100 µM
GI% [6]: 37.85%
GI% [7]: 35.23%
GI50 ([7]; Homo sapiens, five dose): 2.28 µM
GI50 ([8]; Homo sapiens, UACC-62, five dose): 59.3 µM
GI% [8]: – (GI% < 5%)
GI50 ([9]; Homo sapiens, SK-MEL-5, five dose): 41.5 µM
GI% [9]: 24.21%
GI50 ([10]; Homo sapiens, MDA-MB-435, five dose): 20.6 µM
GI% [10]: 96.57%
GI50 ([11]; Homo sapiens, M14, five dose): 47.4 µM
GI% [11]: 39.13%
GI% [12]: 160.95%
GI50 ([12]; Homo sapiens, five dose): 4.09 µM
GI50 ([13]; Homo sapiens, UACC-257, five dose): > 100 µM
GI% [13]: – (GI% < 5%)
GI50 ([14]; Homo sapiens, UO-31, five dose): 2.03 µM
GI% [14]: 44.24%
GI% [15]: – (GI% < 5%)
GI50 ([15]; Homo sapiens, A498, five dose): > 100 µM
GI% [16]: 72.22%
GI50 ([16]; Homo sapiens, CAKI-1, five dose): 56.2 µM
GI50 ([17]; Homo sapiens, TK-10, five dose): 71.7 µM
GI% [17]: 86.88%
GI% [18]: 96.99%
GI50 ([18]; Homo sapiens, five dose): 6.7 µM
GI% [19]: 24.01%
GI50 ([19]; Homo sapiens, five dose): 25.6 µM
GI50 ([20]; Homo sapiens, RXF 393, five dose): 5.06 µM
GI% [20]: 129.01%
GI% [21]: 75.63%
GI50 ([21]; Homo sapiens, 786-0, five dose): 16.1 µM
GI% [22]: 34.64%
GI50 ([22]; Homo sapiens, five dose): 24.8 µM
GI50 ([23]; Homo sapiens, MCF7, five dose): 3.44 µM
GI% [23]: 82.77%
GI50 ([24]; Homo sapiens, MDA-MB-468, five dose): 3.72 µM
GI% [24]: 60.54%
GI% [25]: 75.41%
GI50 ([25]; Homo sapiens, five dose): 5.44 µM
GI50 ([26]; Homo sapiens, T47D, five dose): 41 µM
GI% [27]: 33.89%
GI50 ([27]; Homo sapiens, BT-549, five dose): 17.6 µM
GI50 ([28]; Homo sapiens, COLO 205, five dose): 10.6 µM
GI50 ([29]; Homo sapiens, SW-620, five dose): 2.27 µM
GI% [29]: 148.26%
GI% [30]: 87.90%
GI50 ([30]; Homo sapiens, HCT-116, five dose): 4.5 µM
GI% [31]: 44.35%
GI50 ([31]; Homo sapiens, HCC-2998, five dose): 5.34 µM
GI50 ([32]; Homo sapiens, KM12, five dose): > 100 µM
GI% [32]: 36.53%
GI% [33]: 127.40%
GI50 ([33]; Homo sapiens, HCT-15, five dose): 3.6 µM
GI50 ([34]; Homo sapiens, five dose, NCI cancer cell lines, read-out: GI50 reached (most sensitive NCI cell line)): 2.02 µM
Mean GI% [34]: 55.91%

O=C(COc1ccccc1-c1nc2ccccc2s1)NN=C1C(=O)Nc2ccc(Br)cc21 [Compound 9f, 2-(2-(Benzo[d]thiazol-2-yl)phenoxy)-N′-(5-bromo-2-oxoindolin-3-ylidene)acetohydrazide]
GI% [1]: 81.08%
GI% [2]: 45.84%
GI% [3]: 110.59%
GI% [4]: 84.86%
GI% [5]: 32.61%
GI% [6]: – (GI% < 5%)
GI% [7]: 55.98%
GI% [8]: 25.55%
GI% [9]: 43.95%
GI% [10]: 14.63%
GI% [11]: 8.00%
GI% [12]: 59.05%
GI% [13]: 13.04%
GI% [14]: 21.89%
GI% [15]: 12.61%
GI% [16]: 51.85%
GI% [17]: 55.14%
GI% [18]: 64.71%
GI% [19]: 67.11%
GI% [20]: 82.91%
GI% [21]: 101.23%
GI% [22]: 75.23%
GI% [23]: 55.39%
GI% [24]: 63.10%
GI% [25]: 55.33%
GI% [26]: 60.76%
GI% [27]: 86.84%
GI% [28]: – (GI% < 5%)
GI% [29]: – (GI% < 5%)
GI% [30]: 53.40%
GI% [31]: 11.62%
GI% [32]: 15.34%
GI% [33]: 17.46%
Mean GI% [34]: 43.78%

COc1cccc(-c2nc3ccccc3s2)c1OCC(=O)NN=C1C(=O)Nc2ccccc21 [Compound 9g, 2-(2-(Benzo[d]thiazol-2-yl)-6-methoxyphenoxy)-N′-(2-oxoindolin-3-ylidene)acetohydrazide]
GI% [1]: 13.10%
GI% [2]: 5.11%
GI% [3]: 9.46%
GI% [4]: – (GI% < 5%)
GI% [5]: 29.36%
GI% [6]: – (GI% < 5%)
GI% [7]: 13.82%
GI% [8]: 46.29%
GI% [9]: 95.02%
GI% [10]: 10.97%
GI% [11]: – (GI% < 5%)
GI% [12]: 25.54%
GI% [13]: – (GI% < 5%)
GI% [14]: 41.81%
GI% [15]: – (GI% < 5%)
GI% [16]: 34.75%
GI% [17]: – (GI% < 5%)
GI% [18]: 14.78%
GI% [19]: 18.49%
GI% [20]: 35.85%
GI% [21]: – (GI% < 5%)
GI% [22]: 16.30%
GI% [23]: 26.62%
GI% [24]: 50.47%
GI% [25]: 18.32%
GI% [26]: 29.32%
GI% [27]: 25.83%
GI% [28]: 25.08%
GI% [29]: – (GI% < 5%)
GI% [30]: 20.48%
GI% [31]: – (GI% < 5%)
GI% [32]: 8.64%
GI% [33]: 25.54%
Mean GI% [34]: 15.46%
